Assay results reported in patent US10251897B2, “GLUT4 endocytosis inhibitor” (NISHIZAKI BIOINFORMATION RESEARCH INSTITUTE, priority 2014, dated 2019).

Tests used:
GLUT4 [1] = assay: GLUT4 mobilization monitoring (cellular membrane distribution of GLUT4, Western blotting with anti-c-myc antibody); format: cell-based
Protocol: FIG. 1 is a graph showing that DOPE has an action to increase cellular membrane distribution of GLUT4 in differentiated 3T3L1-GLUT4myc adipocytes. The cells were not treated with (Control), or treated with 1 μM of various phospholipid derivatives and, after 20 min, lysed, and separated into the cytoplasm (C) fraction and cellular membrane (M) fraction, after which Western blotting was performed using an anti-c-myc antibody. […] P value, ANOVA (Bonferroni adjustment). NS; not significant. DOPE; 1,2-dioleoyl-sn-glycero-3-phosphoethanolamine, DAPE; 1,2-diarachidonoyl-sn-glycero-3-phosphoethanolamine, DPPE; 1,2-dipalmitoleoyl-sn-glycero-3-phosphoethanolamine, DLPE; 1,2-dilinoleoyl-sn-glycero-3-phosphoethanolamine.
(§1) 3T3L1-GLUT4myc fibroblast strain expressing GLUT4myc was used. The cells are constructed by inserting human c-MYC epitope (14 amino acids) into the first ectodomain. […]
(§2) The protein concentration of each fraction was measured using BCA protein assay kit (Thermo Fisher Scientific, Waltham, Mass., USA). […] The immunoreactivity was detected using ECL kit (Invitrogen), and visualized using a chemical luminescence detection system (chemiluminescence detection system; GE Healthcare, Piscataway, N.J., USA). The signal density was measured using an image analysis software (Image Gauge software; GE Healthcare).

GLUT4 [2] = assay: GLUT4 internal transfer (uptake) assay after insulin pre-treatment; format: cell-based; conditions: insulin 100 nM 30 min then washed
Protocol: FIG. 2 is a graph showing that the GLUT4 cellular membrane distribution increasing action of DOPE derives from the suppression of GLUT4 endocytosis. 3T3L1-GLUT4myc adipocytes were treated with insulin (100 nM) for 30 min (−30-0 min), then washed to remove insulin (0 min), and DOPE (10 mM) was added to an extracellular solution. After incubation for 120 min, the cells were lysed, and separated into the cytoplasm (C) fraction and cellular membrane (M) fraction, after which Western blotting was performed using an anti-c-myc antibody. […] P value, ANOVA (Bonferroni adjustment). NS; not significant.
as §1
as §2, with “Healthcare). […]” for “Healthcare).”

PKC isozymes = assay: Cell free PKC assay, PKC isozymes; format: biochemical; conditions: DOPE 100 μM, absence of TPA
Protocol: (§3) PKC activity was monitored in a cell-free system. (A) Given PKC isozyme was evaluated in the absence or presence of DOPE (100 μM). […] P value, compared to each PKC isozyme activation in the absence of DOPE, Dunnett's test. (B) The activity of PKCα was evaluated in the absence (control) or presence of DOPE (100 μM), in the absence or presence of TPA (1 μM). […] P value, Dunnett's test. TPA; 12-O-tetradecanoylphorbol-[…].
(§4) PKC activity in a cell-free system was quantified by the methods described in previous reports (Kanno T et al. J Lipid Res 2006; 47:1146-1156). In short, synthesized PKC substrate peptide (10 μM) was reacted with various PKC isozymes in a medium containing 20 mM Tris-HCl (pH 7.5), 5 mM magnesium acetate, 10 μM ATP, in the presence or absence of DOPE (100 μm), in the presence or absence of 1 μM TPA (12-O-tetradecanoylphorbol-13-acetate) at 30° C. for 5 min. […] They were applied on reversed-phase HPLC (LC-10ATvp, Shimadzu Co., Kyoto, Japan), and the peak of substrate peptide and the peak of a new resultant product were measured by the absorbance at 214 nm. The areas of unphosphorylated PKC substrate peptide and phosphorylated PKC substrate peptide were measured (total area corresponds to the concentration of PKC substrate peptide used in this Example), and the amount of the phosphorylated substrate peptide was calculated. […]

PKCα = PKCα (Homo sapiens, UniProt P17252); assay: Cell free PKC assay, PKCα activated by TPA; format: biochemical; conditions: DOPE 100 μM, TPA 1 μM
Protocol: as §3, §4

Glucose tolerance test = format: in vivo, C57BL/KsJ-lepr^db/lepr^db mouse; conditions: type 2 diabetes model mouse, DOPE 0.1, 1, 10 mg/kg oral 30 min before glucose 2 g/kg; 30, 60, 90 min
Protocol: FIG. 6 is a graph showing that DOPE decreases the serum glucose level in C57BL/KsJ-lepr^db/lepr^db mouse. The mouse was placed in glucose starvation for 12 hr, glucose (2 g/kg) was orally administered, the blood was recovered at a given time and serum glucose assay was performed. DOPE was orally administered at a given concentration (0-10 mg/kg) 30 min before administration of glucose. […] P value, Fisher's PLSD (Protected Least Significant Difference test).
C57BL/KsJ-lepr^db/lepr^db mouse (female, 8-week-old) (CLEA Japan; Tokyo, Japan) was used. Glucose tolerance test was performed using the mouse starved for 12 hr. Glucose (2 g/ml/kg body weight) was administered by gavage, and the time point thereof was taken as 0 h. DOPE (0, 0.1, 1, 10 mg/kg) was orally administered 30 min before administration of glucose. Brine was used for DOPE (0 mg/kg). The blood (10 μl) was collected from the tail vein at the time points of 30, 60, and 90 min, and each plasma sample which was labeled with 4-aminobenzyl ethyl ester (ABEE) and prepared from the obtained blood was loaded on high performance liquid chromatography (HPLC) system (LC-10ATvp; Shimadzu Co., Kyoto, Japan). The glucose concentration was calculated from a peak area/concentration analytical curve prepared using the standard glucose solution.

Row | Compound | GLUT4 distribution on the cellular membrane (GLUT4 [1]; 3T3L1-GLUT4myc adipocytes 48 hr after siRNA transfection, vs NC siRNA) | decrease of GLUT4 on the cellular membrane by endocytosis after insulin stimulation (GLUT4 [2]; siRNA-transfected 3T3L1-GLUT4myc adipocytes, 120 min) | distribution of GLUT4 in cellular membrane (c-myc signal in cellular membrane fraction / total cells) (GLUT4 [1]; differentiated 3T3L1-GLUT4myc adipocytes, 1 μM phospholipid derivative, 20 min, vs Control) | endocytosis of GLUT4 transported onto the cellular membrane by insulin stimulation (GLUT4 [2]; 3T3L1-GLUT4myc adipocytes) | PKC activation (PKC isozyme activity, pmol/min) (PKC isozymes) | PKCα activity activated by TPA (PKCα) | blood glucose level (Glucose tolerance test)
1 | PKCα siRNA: siRNA for PKCα, SEQ ID NO: 1 and 2, purchased from Ambion (chain 1 GAACGUGCAUGAGGUGAAATT; chain 2 UUUCACCUCAUGCACGUUCTT; chemistry not given here) [reference compound] | significantly increased | the decrease was suppressed |  |  |  |  | 
2 | CCCCCCCC/C=C\CCCCCCCC(=O)OC[C@H](COP(=O)(O)OCCN)OC(=O)CCCCCCC/C=C\CCCCCCCC [DOPE, 1,2-Dioleoyl-sn-glycerol-3-phosphoethanolamine] |  |  | significantly increased | suppressed | not involved in PKC activation | suppress PKCα activated by TPA | decrease blood glucose level of type 2 diabetes model mouse in a dose dependent manner
